Experimental data published in US5739351A, “Perhydroisoindole derivatives as substance P antagonists” (Rhone-Poulenc Rorer S.A., priority 1994, dated 1998).

How the values were obtained:
[1] = system: increase in capillary permeability brought about by septide (a substance P agonist); assay: inhibition of the increase in capillary permeability brought about by septide; format: in vivo; conditions: Cavia porcellus, po; guinea pig, capillary permeability increase induced by septide
From the text: The study of certain isoindole derivatives of general formula (I) in the technique of A. Saria et al., Arch.

formaldehyde pain = formaldehyde pain test in guinea pigs; format: in vivo; conditions: Cavia porcellus, po, guinea pig
Protocol: Moreover, certain products according to the invention were studied in the formaldehyde pain test in guinea pigs. The ED50 of the product is determined in this way.

Structure (SMILES)	ED50 [1] [mg/kg]	ED50 (formaldehyde pain) [mg/kg]
COc1ccccc1[C@@]1(O)C[C@@H](CC#N)C[C@@H]2CN(C(=O)Cc3ccccc3N3CCCC3)C[C@@H]21 (racemic) [Example 2, (3aRS,4RS,6RS,7aSR)-6-Cyanomethyl-4-(2-methoxyphenyl)-2-{[2-(1-pyrrolidinyl)phenyl]acetyl} perhydroisoindol-4-ol]	1	
N#CC[C@@H]1C[C@@H]2CN(C(=O)Cc3ccccc3O)C[C@@H]2[C@@](O)(c2ccccc2F)C1 (racemic) [Example 14, (3aRS,4RS,6SR,7aSR)-6-Cyanomethyl-4-(2-fluorophenyl)-2-(2-hydroxyphenylacetyl)perhydroisoindol-4-ol]	0.2 to 0.4	
COc1ccccc1CC(=O)N1C[C@@H]2C[C@@H](CNC#N)C[C@@](O)(c3ccccc3OC)[C@@H]2C1 (relative stereo) [Example 18, (3aRS,4RS,6SR,7aSR)-6-Cyanoaminomethyl-4-(2-methoxyphenyl)-2-[(2-methoxyphenyl)acetyl]perhydroisoindolol]	1	
COc1ccccc1[C@H](C)C(=O)N1C[C@@H]2C[C@@H](CC#N)C[C@@](O)(c3ccccc3OC)[C@@H]2C1 [Example 1, (3aS,4S,6S,7aR)-6-Cyanomethyl-4-(2-methoxyphenyl)-2-[(S)-2-(2-methoxylphenyl)propionyl]perhydroisoindol-4-ol]	0.004	1
COc1ccccc1[C@]1(O)C[C@H](CC#N)C[C@H]2CN(C(=O)[C@@H](C)c3ccccc3O)C[C@H]21 [Example 4, (3aS,4S,6S,7aR)-6-Cyanomethyl-2-[(S)-2-(2-hydroxyphenyl)propionyl]-4-(2-methoxyphenyl)perhydroisoindol-4-ol]	0.004	
COc1ccccc1CC(=O)N1C[C@@H]2C[C@@H](CC#N)C[C@@](O)(c3ccccc3OC)[C@@H]2C1 [Example 5, (3aS, 4S, 6S, 7aR)-6-Cyanomethyl-4-(2-methoxyphenyl)-2-[(2-methoxyphenyl)acetyl]perhydroisoindol-4-ol]	0.32	3 to 30
COc1ccccc1[C@]1(O)C[C@H](CC#N)C[C@H]2CN(C(=O)Cc3ccc(Cl)c(Cl)c3)C[C@H]21 [Example 7, (3aS,4S,6S,7aR)-6-Cyanomethyl-2-[(3,4-dichlorophenyl)acetyl]-4-(2-methoxyphenyl)perhydroisoindol-4-ol]	0.36	
COc1ccccc1[C@]1(O)C[C@H](CC#N)C[C@H]2CN(C(=O)[C@@H](N)c3ccccc3)C[C@H]21 [Example 9, (3aS,4S,6S,7aR)-2-[(S)-2-Amino-2-phenylacetyl]-6-cyanomethyl-4-(2-methoxyphenyl)perhydroisoindol-4-ol]		3 to 30
COc1ccccc1C(N)C(=O)N1C[C@@H]2C[C@@H](CC#N)C[C@@](O)(c3ccccc3OC)[C@@H]2C1 (stereo partly drawn) [Example 10]	0.05	
COc1ccccc1[C@H](C)C(=O)N1C[C@@H]2C[C@@H](CC#N)C[C@@](O)(c3ccccc3F)[C@@H]2C1 [Example 13, (3aS,4S,6S,7aR)-6-Cyanomethyl-4-(2-fluorophenyl)-2-[(S)-2-(2-methoxyphenyl)propionyl]perhydroisoindol-4-ol]	0.02	
